According to ChEMBL document CHEMBL3046369, “Synthesis of novel optically pure -amino acid functionalised-7-trifluoromethyl substituted quinolone derivatives and their antibacterial activity” (2013):

Key:
Format in all cases: functional
Bacillus subtilis = experiment: Antibacterial activity against Bacillus subtilis assessed as growth inhibition by microtitration method
Pseudomonas aeruginosa = experiment: Antibacterial activity against Pseudomonas aeruginosa assessed as growth inhibition by microtitration method
Escherichia coli = experiment: Antibacterial activity against Escherichia coli assessed as growth inhibition by microtitration method
Staphylococcus aureus = experiment: Antibacterial activity against Staphylococcus aureus assessed as growth inhibition by microtitration method
[1] = test system: Staphylococcus epidermidis; experiment: Antibacterial activity against Staphylococcus epidermidis assessed as growth inhibition by microtitration method
Klebsiella aerogenes = experiment: Antibacterial activity against Enterobacter aerogenes assessed as growth inhibition by microtitration method

| Compound | MIC (Bacillus subtilis) [µg/mL] | MIC (Pseudomonas aeruginosa) [µg/mL] | MIC (Escherichia coli) [µg/mL] | MIC (Staphylococcus aureus) [µg/mL] | MIC [1] [µg/mL] | MIC (Klebsiella aerogenes) [µg/mL] |
| --- | --- | --- | --- | --- | --- | --- |
| CC(C)C[C@H](NC(=O)c1cnc2cc(C(F)(F)F)ccc2c1O)C(=O)O | 50 | 25 | 25 | 25 | 25 | 25 |
| O=C(N[C@H](Cc1ccccc1)C(=O)O)c1cnc2cc(C(F)(F)F)ccc2c1O | 50 | 6.12 | 25 | 25 | 25 | 12.5 |
| CC(C)[C@H](NC(=O)c1cnc2cc(C(F)(F)F)ccc2c1O)C(=O)O | 50 | 25 | 25 | 25 | 25 | 25 |
| C[C@H](NC(=O)c1cnc2cc(C(F)(F)F)ccc2c1O)C(=O)O | 50 | 25 | 25 | 25 | 25 | 50 |
| CC[C@@H](C)[C@H](NC(=O)c1cnc2cc(C(F)(F)F)ccc2c1O)C(=O)O | 50 | 25 | 25 | 25 | 25 | 25 |
| CCn1cc(C(=O)N[C@@H](CC(C)C)C(=O)O)c(=O)c2ccc(C(F)(F)F)cc21 | 25 | 6.25 | 12.5 | 25 | 6.25 | 12.5 |
| CCOC(=O)[C@H](CC(C)C)NC(=O)c1cn(CC)c2cc(C(F)(F)F)ccc2c1=O | 50 | 6.25 | 25 | 25 | 25 | 12.5 |
| O=C(O)c1cn(C2CC2)c2cc(N3CCNCC3)c(F)cc2c1=O [CIPROFLOXACIN] | 0.048 | 0.012 | – | 0.048 | 0.012 | 0.012 |
| CCn1cc(C(=O)N[C@H](Cc2ccccc2)C(=O)O)c(=O)c2ccc(C(F)(F)F)cc21 | 25 | 25 | 25 | 25 | 25 | 12.5 |
| CCn1cc(C(=O)N[C@H](C)C(=O)O)c(=O)c2ccc(C(F)(F)F)cc21 | 50 | 12.5 | 12.5 | 25 | 25 | 25 |
| C[C@@H](NC(=O)c1cnc2cc(C(F)(F)F)ccc2c1O)C(=O)O | 50 | 6.12 | 25 | 25 | 12.5 | 25 |
| CCOC(=O)[C@H](C)NC(=O)c1cn(CC)c2cc(C(F)(F)F)ccc2c1=O | 25 | 25 | 25 | 50 | 6.25 | 12.5 |
| CCOC(=O)[C@@H](C)NC(=O)c1cn(CC)c2cc(C(F)(F)F)ccc2c1=O | 25 | 6.12 | 25 | 25 | 25 | 12.5 |
| O=C(O)[C@@H]1CCCN1C(=O)c1cnc2cc(C(F)(F)F)ccc2c1O | 50 | 25 | 25 | 25 | 50 | 25 |
| CCOC(=O)[C@@H](NC(=O)c1cn(CC)c2cc(C(F)(F)F)ccc2c1=O)C(C)C | 25 | 25 | 25 | 25 | 25 | 12.5 |
| O=C(N[C@@H](Cc1ccccc1)C(=O)O)c1cnc2cc(C(F)(F)F)ccc2c1O | 50 | 25 | 25 | 12.5 | 25 | 25 |
| CCn1cc(C(=O)N[C@@H](C)C(=O)O)c(=O)c2ccc(C(F)(F)F)cc21 | 50 | 25 | 12.5 | 12.5 | 6.25 | 12.5 |
| CCOC(=O)[C@H](Cc1ccccc1)NC(=O)c1cn(CC)c2cc(C(F)(F)F)ccc2c1=O | 50 | 6.25 | 12.5 | 25 | 6.25 | 6.25 |
| CCn1cc(C(=O)N[C@H](C(=O)O)C(C)C)c(=O)c2ccc(C(F)(F)F)cc21 | 50 | 6.25 | 12.5 | 12.5 | 6.25 | 3.12 |
| CCOC(=O)[C@@H](NC(=O)c1cn(CC)c2cc(C(F)(F)F)ccc2c1=O)[C@H](C)CC | 50 | 25 | 25 | 25 | 25 | 12.5 |
| CCn1cc(C(=O)N[C@@H](Cc2ccccc2)C(=O)O)c(=O)c2ccc(C(F)(F)F)cc21 | 50 | 3.12 | 12.5 | 12.5 | 3.12 | 6.25 |
| CC[C@@H](C)[C@H](NC(=O)c1cn(CC)c2cc(C(F)(F)F)ccc2c1=O)C(=O)O | 25 | 6.25 | 12.5 | 25 | 6.25 | 12.5 |
| CCn1cc(C(=O)N2CCC[C@H]2C(=O)O)c(=O)c2ccc(C(F)(F)F)cc21 | 25 | 6.25 | 12.5 | 25 | 6.25 | 6.25 |
| CCOC(=O)[C@@H](Cc1ccccc1)NC(=O)c1cn(CC)c2cc(C(F)(F)F)ccc2c1=O | 25 | 25 | 25 | 25 | 25 | 25 |
| CCOC(=O)[C@@H]1CCCN1C(=O)c1cn(CC)c2cc(C(F)(F)F)ccc2c1=O | 50 | 6.25 | 25 | 25 | 25 | 12.5 |
